In US20100119599A1 (ARCHER PHARMACEUTICALS, INC., priority 2006, published 2010):

Key:
Aβ1-40 = assay: Measurement of Aβ1-40 in culture medium of 7W WT APP751 CHO cells by ELISA; assay type: cell-based, Chinese hamster; settings: for activity at 5 µM: Cricetulus griseus, Table 1, 5 μM test compound, CHO cells stably transfected with human APP751, culture medium, ELISA, control DMSO, 0 = no detectable amount; for Aβ1-40 (% of control): CHO cells that overexpress APP751, zero = below the detection limit of the assay
Aβ1-42 = assay: Measurement of Aβ1-42 in culture medium of 7W WT APP751 CHO cells by ELISA; assay type: cell-based, Chinese hamster; settings: for activity at 5 µM: Cricetulus griseus, Table 1, 5 μM test compound, CHO cells stably transfected with human APP751, culture medium, ELISA, control DMSO, 0 = no detectable amount, read-out: Aβ1-42 (% of control); for Aβ1-42 (% of control): CHO cells that overexpress APP751, zero = below the detection limit of the assay
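Also: 5 µM test compound but RI-coded compounds at 10 µM for 24 hours.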

| Structure (SMILES) | activity at 5 µM (Aβ1-40) | activity at 5 µM (Aβ1-42) | Aβ1-40 (% of control) (Aβ1-40) | Aβ1-42 (% of control) (Aβ1-42) |
| --- | --- | --- | --- | --- |
| CCCOC(=O)C1=C(C)NC2=C(C(=O)CCC2)C1c1cccnc1 (stereo not shown) [ST017250, propyl 2-methyl-5-oxo-4-(3-pyridyl)-1,4,6,7,8-pentahydroquinoline-3-carboxylate] | 28.5% | 49.2% |  |  |
| COc1ccccc1C1C(C(=O)OCCOc2ccccc2)=C(C)NC2=C1C(=O)CC(C)(C)C2 (stereo not shown) [ST015108, 2-phenoxyethyl 4-(2-methoxyphenyl)-2,7,7-trimethyl-5-oxo-1,4,6,7,8-pentahydroquinoline-3-carboxylate] | 33% | 92.1% |  |  |
| CC1=C(C(=O)Nc2ccccc2C)C(c2ccco2)C(C#N)=C(SCC(=O)Nc2cccc(Cl)c2C)N1 (stereo not shown) [ST051156, N-(3-chloro-2-methylphenyl)-2-{3-cyano-4-(2-furyl)-6-methyl-5-[N-(2-methylphenyl)carbamoyl](2-1,4-dihydropyridylthio)}acetamide] |  |  | 86.64 % of control | 68.02 % of control |
| N#CC1=C(N)NC(SCC(N)=O)=C(C#N)C1c1ccccc1Br (stereo not shown) [RI_1] |  |  | 93.2 % of control | 75.4 % of control |
| CCc1cccc(NC(=O)CSC2=C(C#N)C(c3cc4cccnc4s3)C(C(=O)Nc3ccccc3)=C(C)N2)c1 (stereo not shown) [RI_84] |  |  | 64.2 % of control | 44.5 % of control |
| CCOc1ccc(/C=c2\sc3n(c2=O)C(N)=C(C#N)C(c2ccc(OCC)c(OC)c2)C=3C#N)cc1OC (stereo not shown) [ST025022, 5-amino-7-(4-ethoxy-3-methoxyphenyl)-2-[(4-ethoxy-3-methoxyphenyl)methylene]-3-oxo-4,7-dihydro-1,3-thiazolidino[3,2-a]pyridine-6,8-dicarbonitrile] |  |  | 61.31 % of control | 76.11 % of control |
| CC1=C(C(=O)OC2CCCC2)C(c2cccc(Cl)c2)C2=C(CCCC2=O)N1 (stereo not shown) [ST013156, cyclopentyl 4-(3-chlorophenyl)-2-methyl-5-oxo-1,4,6,7,8-pentahydroquinoline-3-carboxylate] | 0% | 13.7% |  |  |
| CCCCCOC(=O)C1=C(C)NC2=C(C(=O)CC(C)(C)C2)C1c1cc2c(cc1Br)OCO2 (stereo not shown) [ST216568, pentyl 4-(6-bromo(2H-benzo[d]1,3-dioxolan-5-yl))-2,7,7-trimethyl-5-oxo-1,4,6,7,8-pentahydroquinoline-3-carboxylate] | 14.8% | 24.7% |  |  |
| CC1=C(C(=O)OCc2ccccc2)C(c2cc3c(cc2[NH+]([O-])O)OCO3)C2=C(CC(C)(C)CC2=O)N1 (stereo not shown) [ST013052, phenylmethyl 2,7,7-trimethyl-4-(6-nitro(2H-benzo[d]1,3-dioxolan-5-yl))-5-oxo-1,4,6,7,8-pentahydroquinoline-3-carboxylate] | 68.8% | 72.4% |  |  |
| N#CC1=C(N)N(c2ccc(F)cc2)C2=C(C(=O)CC(c3ccccc3)C2)C1c1ccsc1 (stereo not shown) [ST040993, 2-amino-1-(4-fluorophenyl)-5-oxo-7-phenyl-4-(3-thienyl)-1,4,6,7,8-pentahydroquinoline-3-carbonitrile] | 65.7% | 46.9% |  |  |
| CCOC(=O)C1=C(C)NC2=C(C(=O)CCC2)C1c1ccc(OCC)cc1 (stereo not shown) [ST213781, ethyl 4-(4-ethoxyphenyl)-2-methyl-5-oxo-1,4,6,7,8-pentahydroquinoline-3-carboxylate] | 66.8% | 81.3% |  |  |
| CCOC(=O)C1=CN(c2ccc(C)cc2)C=C(C(=O)OCC)C1c1ccccc1OCC [ST052284, ethyl 5-(ethoxycarbonyl)-4-(2-ethoxyphenyl)-1-(4-methylphenyl)-1,4-dihydropyridine-3-carboxylate] |  |  | 57.71 % of control | 55.61 % of control |
| COc1ccc(COC(=O)C2=C(C)NC3=C(C(=O)CC(C)(C)C3)C2c2ccc(Cl)c([N+](=O)[O-])c2)cc1 (stereo not shown) [ST052357, (4-methoxyphenyl)methyl 4-(4-chloro-3-nitrophenyl)-2,7,7-trimethyl-5-oxo-1,4,6,7,8-pentahydroquinoline-3-carboxylate] | 13.3% | 23.4% |  |  |
| C=CCOC(=O)C1=C(C)NC2=C(C(=O)CCC2)C1c1ccc(OC)c(OC)c1OC (stereo not shown) [ST014969, prop-2-enyl 2-methyl-5-oxo-4-(2,3,4-trimethoxyphenyl)-1,4,6,7,8-pentahydroquinoline-3-carboxylate] | 39.7% | 83.3% |  |  |
| COc1ccc(OC)c(C2C(C(=O)OC3CCCCC3)=C(C)NC3=C2C(=O)CCC3)c1 (stereo not shown) [ST013270, cyclohexyl 4-(2,5-dimethoxyphenyl)-2-methyl-5-oxo-1,4,6,7,8-pentahydroquinoline-3-carboxylate] | 19.7% | 35% |  |  |
| COc1ccccc1NC(=O)C1=C(C)NC2=C(C(=O)CCC2)C1c1ccc(Cl)cc1 (stereo not shown) [ST052292, [4-(4-chlorophenyl)-2-methyl-5-oxo(3-1,4,6,7,8-pentahydroquinolyl)]-N-(2-methoxyphenyl)carboxamide] | 85.8% | 68.2% |  |  |

| Structure (SMILES) | activity at 5 µM (Aβ1-40) | activity at 5 µM (Aβ1-42) | Aβ1-40 (% of control) (Aβ1-40) | Aβ1-42 (% of control) (Aβ1-42) |
| --- | --- | --- | --- | --- |
| COc1ccc(C2C(C#N)=C(N)N(c3ccccc3Cl)C3=C2C(=O)CCC3)cc1O (stereo not shown) [ST051958, 2-amino-1-(2-chlorophenyl)-4-(3-hydroxy-4-methoxyphenyl)-5-oxo-1,4,6,7,8-pentahydroquinoline-3-carbonitrile] | 56.6% | 80.2% |  |  |
| CC1=C(C(=O)OCc2ccccc2)C(c2ccc([N+](=O)[O-])cc2)C2=C(CC(C)(C)CC2=O)N1 (stereo not shown) [ST013214, phenylmethyl 2,7,7-trimethyl-4-(4-nitrophenyl)-5-oxo-1,4,6,7,8-pentahydroquinoline-3-carboxylate] | 0% | 4.36% |  |  |
| CCc1ccc(C2C(C(=O)OC3CCCCC3)=C(C)NC3=C2C(=O)CCC3)cc1 (stereo not shown) [ST013320, cyclohexyl 4-(4-ethylphenyl)-2-methyl-5-oxo-1,4,6,7,8-pentahydroquinoline-3-carboxylate] | 60.2% | 71.8% |  |  |
| COC(=O)C1=C(C)NC2=C(C(=O)CC(C)(C)C2)C1c1cccc(OCc2ccccc2)c1 (stereo not shown) [ST052360, methyl 2,7,7-trimethyl-5-oxo-4-[3-(phenylmethoxy)phenyl]-1,4,6,7,8-pentahydroquinoline-3-carboxylate] | 55.7% | 61.6% |  |  |
| CC1=C(C(=O)OC(C)C)C(c2cccnc2)C2=C(CCCC2=O)N1 (stereo not shown) [ST013077, methylethyl 2-methyl-5-oxo-4-(3-pyridyl)-1,4,6,7,8-pentahydroquinoline-3-carboxylate] | 27.4% | 97.8% |  |  |
| CCCOCCOC(=O)C1=C(C)NC2=C(C(=O)CC(C)(C)C2)C1c1ccc(Cl)c(Cl)c1 (stereo not shown) [ST052446, 2-propoxyethyl 4-(3,4-dichlorophenyl)-2,7,7-trimethyl-5-oxo-1,4,6,7,8-pentahydroquinoline-3-carboxylate] | 58.1% | 45.2% |  |  |
| CCOc1cccc(C2C(C(=O)OC)=CNC=C2C(=O)OC)c1 [ST052415, methyl 4-(3-ethoxyphenyl)-5-(methoxycarbonyl)-1,4-dihydropyridine-3-carboxylate] |  |  | 70.57 % of control | 72.15 % of control |
| CC1(C)CC(=O)C2=C(C1)N(Cc1ccccc1)C(N)=C(C#N)C2c1ccc(Cl)cc1 (stereo not shown) [ST047623, 2-amino-4-(4-chlorophenyl)-7,7-dimethyl-5-oxo-1-benzyl-1,4,6,7,8-pentahydroquinoline-3-carbonitrile] | 95.4% | 44.4% |  |  |
| CCSCCOC(=O)C1=C(C)NC2=C(C(=O)CCC2)C1c1ccc(OCCO)c(OC)c1 (stereo not shown) [ST017113, 2-ethylthioethyl 4-[4-(2-hydroxyethoxy)-3-methoxyphenyl]-2-methyl-5-oxo-1,4,6,7,8-pentahydroquinoline-3-carboxylate] | 82.6% | 74.1% |  |  |
| COC(=O)C1=CN(Cc2ccc(OC)c(OC)c2)C=C(C(=O)OC)C1c1cccs1 [ST038115, methyl 1-[(3,4-dimethoxyphenyl)methyl]-5-(methoxycarbonyl)-4-(2-thienyl)-1,4-d ihydropyridine-3-carboxylate] |  |  | 42.45 % of control | 91 % of control |
| CCc1ccc(C2C(C(=O)OCCOc3ccccc3)=C(C)NC3=C2C(=O)CC(C)(C)C3)cc1 (stereo not shown) [ST014886, 2-phenoxyethyl 4-(4-ethylphenyl)-2,7,7-trimethyl-5-oxo-1,4,6,7,8-pentahydroquinoline-3-carboxylate] | 21.6% | 65.1% |  |  |
| CCOc1ccc(NC(=O)CSC2=C(C#N)C(c3ccco3)C(C(=O)Nc3ccccc3C)=C(C)N2)cc1 (stereo not shown) [ST051158, 2-{3-cyano-4-(2-furyl)-6-methyl-5-[N-(2-methylphenyl)carbamoyl](2-1,4-dihydropyridylthio)}-N-(4-ethoxyphenyl)acetamide] |  |  | 17.68 % of control | 15.87 % of control |
| CC1=C(C(=O)Nc2ccc(Cl)cc2)C(c2ccsc2)C(C#N)=C(SCC(=O)Nc2cccc(Cl)c2C)N1 (stereo not shown) [RI_53] |  |  | 56 % of control | 99.2 % of control |
| CCCOc1ccc(C2C(C(=O)OCCSCC)=C(C)NC3=C2C(=O)CC(C)(C)C3)cc1OC (stereo not shown) [ST017116, 2-ethylthioethyl 4-(3-methoxy-4-propoxyphenyl)-2,7,7-trimethyl-5-oxo-1,4,6,7,8-pentahydroquinoline-3-carboxylate] | 43.5% | 43% |  |  |
| CC1=C(C(=O)Nc2ccccc2)C(c2cccs2)C(C#N)=C(SCC(=O)Nc2ccc(C(C)C)cc2)N1 (stereo not shown) [RI_47] |  |  | 30.5 % of control | 28.1 % of control |
| CCSCCOC(=O)C1=C(C)NC2=C(C(=O)CC(C)(C)C2)C1c1cccc(C)c1 (stereo not shown) [ST052457, 2-ethylthioethyl 2,7,7-trimethyl-4-(3-methylphenyl)-5-oxo-1,4,6,7,8-pentahydroquinoline-3-carboxylate] | 38.1% | 63.9% |  |  |
